The subject of assay [1] is delayed-type allergic reaction in the skin. As to conditions: animal model; Non-patent Document 1; cited from earlier work.
Assay [2] has as its system chronic dermatitis models. The following applies: Non-patent Document 2; cited from earlier work.
Assay [3] relates to oxazolone-induced ear swelling. The assay can be described thus: Inhibitory effects on oxazolone-induced ear swelling in mice (Test Example 2). It is filed as in vivo. The following applies: dose 1.2 μg/site, 0.03 mg/mL in acetone applied to inner and outer side of the ear 3 hours before and 2 hours after inducing the reaction, ear thickness 24 hours after induction, BALB/c mice. The procedure: Six-week-old BALB/c mice (male, Charles River Japan, Inc.) were purchased. […] The mice were placed in plastic cages (6 mice per cage) in a breeding room which was kept at a room temperature (19 to 25° C.) and a humidity of 30 to 70% and was illuminated for 12 hours a day (from 7:00 a.m. to 7:00 p.m.). The mice were allowed to freely intake commercially available pellets and water.
As an antigen solution, Oxazolone (Sigma-Aldrich) was dissolved in acetone (Kanto Kagaku) to prepare 0.5 w/v % of oxazolone-acetone solution. BALB/c mice were each applied with 100 μL of the antigen solution to the shaved abdomen for sensitization. Mice were shaved on abdomen on the previous day of the sensitization. […] Ear thickness was measured with a dial thickness gauge (Ozaki Seisakusho) just before and 24 hours after inducing the reaction, and the difference in the thickness was used as an indication of ear swelling. The inhibition ratio (%) against ear swelling was calculated using the following: Inhibition ratio (%)=[{(value in positive control group)−(value in test compound administration group)}/{(value in positive control group)−(value in negative control group)}]×100 Test compound administration group: Compound (I) administration group, prednisolone administration group or combined administration group

Marks after values point to notes of the source that are not given here.

`COc1ccc([C@]2(C#N)CC[C@@H](C(=O)O)CC2)cc1OC1CCCC1` [SB207499]: the “Effect on delayed-type allergic reaction in the skin” value in assay [1] is “inhibit a delayed-type allergic reaction in the skin”. Also, the “Therapeutic effects on chronic dermatitis models” value in assay [2] is recorded as “exhibit therapeutic effects”.
With `C[C@]12C=CC(=O)C=C1CC[C@@H]1[C@@H]2[C@@H](O)C[C@@]2(C)[C@H]1CC[C@]2(O)C(=O)CO` [prednisolone], the figures for the “Inhibition Ratio (ear swelling)” value in assay [3] and in assay [3] (listed as Predonisolone) were 18% and 18%***, respectively.

The record behind these values is US20070287689A1, “Therapeutic And/Or Preventive Agents For Chronic Skin Diseases” (KYOWA HAKKO KOGYO CO., LTD., priority 2004, published 2007).
